# Test results as given in patent publication US20240140941A1, “DERIVATIVE OF 2,5-DIKETOPIPERAZINE COMPOUND, AND PREPARATION METHOD THEREFOR, PHARMACEUTICAL COMPOSITION THEREOF AND USE THEREOF” (DALIAN WZ PROBIOTICS AD HEALTH CO., LTD, priority 2020, published 2024).
# Experiments:
# HT-29 = assay: Inhibition test on cell proliferation (MTT), HT-29; format: cell-based, human; conditions: 72 hours of drug treatment
# Protocol: (§1) Tumor cells (NCI-H460, BxPC-3, HT-29, HCC-LM3) in the logarithmic growth phase were digested, centrifuged, and the supernatants were removed. Cells were resuspended by adding fresh culture medium, and counted using a cell counting plate. 100 μL of culture medium (containing cells) was added to a 96-well plate according to the standard of 2000 to 6000 cells per well and incubated in an incubator (37° C., 5% CO2) for 24 hours. After the cells were completely adhered to the wall, the test sample and Plinabulin were diluted to different concentrations using fresh culture medium, and 4 wells were set for each concentration. After 72 hours of drug treatment, the culture medium was removed, and 20 μL of MTT at a concentration of 5 mg/mL was added to each well. After 3-4 hours in the incubator, the MTT was discarded, and 100 μL of DMSO was added to each well, and placed in a 96-well plate shaker to completely dissolve the purple formazan. Subsequently, the absorbance (OD value) was detected at a wavelength of 490 nm using a microplate reader. The experiment also required setting up zero-setting wells (blank culture medium, MTT, DMSO). Cell inhibition rate=1−(OD value of drug-dosed group−OD value of zero-setting group)/(OD value of blank group−OD value of zero-setting group)×100%.
# NCI-H460 = assay: Inhibition test on cell proliferation (MTT), NCI-H460; format: cell-based, human; conditions: Homo sapiens, NCI-H460, 72 h, 72 hours of drug treatment, MTT; read-out: IC50 (nM) NCI-H460
# Method in brief: (§2)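 Cells plated at 2000-6000 per well, allowed to adhere for 24 h, then exposed to serially diluted compound for 72 h at 37 °C, 5% CO2. Viability read by MTT reduction, with formazan dissolved in DMSO and absorbance taken at 490 nm. Inhibition rate calculated relative to untreated and zero-setting wells.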
# BxPC-3 = assay: Inhibition test on cell proliferation (MTT), BxPC-3; format: cell-based, human; conditions: Homo sapiens, BXPC-3, 72 h, 72 hours of drug treatment, MTT; read-out: IC50 (nM) BxPC-3
# Method in brief: as §2
# HCC-LM3 = assay: Inhibition test on cell proliferation (MTT), HCC-LM3; format: cell-based, human; conditions: Homo sapiens, HCCLM3, 72 h, 72 hours of drug treatment, MTT; read-out: IC50 (nM) HCC-LM3
# Protocol: as §1
structure (smiles),measurement,setting,value
"Cc1cccc(/C=c2\[nH]c(=O)/c(=C/c3ncn(CCCN4CCOCC4)c3C(C)C)[nH]c2=O)c1C [PLN-2-50, (3Z,6Z)-3-(2,3-Dimethylphenyl)methylene-6-((5-isopropyl-1-(3-morpholinyl)propylimidazol-4-yl)methylene)piperazine-2,5-dione]",IC50,"HT-29; Homo sapiens, HT-29, 72 h",37.1 ± 3.15 nM
same,IC50,NCI-H460,41.3 ± 1.25 nM
same,IC50,BxPC-3,23 ± 1.56 nM
same,melting point,,164 to 166 °C
same,IC50,HCC-LM3,20.8 ± 2.56 nM
"Cc1ccccc1/C=c1\[nH]c(=O)/c(=C/c2ncn(CCCN3CCOCC3)c2C(C)C)[nH]c1=O [PLN-2-49, (3Z,6Z)-3-(2-Methylphenyl)methylene-6-((5-isopropyl-1-(3-morpholinyl)propylimidazol-4-yl)methylene)piperazine-2,5-dione]",IC50,"HT-29; Homo sapiens, HT-29, 72 h",35.2 ± 2.15 nM
same,IC50,NCI-H460,33.7 ± 0.7 nM
same,IC50,BxPC-3,27.3 ± 2.75 nM
same,melting point,,169 to 171 °C
same,IC50,HCC-LM3,18.4 ± 1.42 nM
"CC(C)c1c(/C=c2\[nH]c(=O)/c(=C/c3cccc(OC(F)(F)F)c3)[nH]c2=O)ncn1CCCN1CCOCC1 [PLN-2-53, (3Z,6Z)-3-(3-Tifluoromethoxyphenyl)methylene-6-((5-isopropyl-1-(3-morpholinyl)propylimidazol-4-yl)methylene)piperazine-2,5-dione]",IC50,"HT-29; Homo sapiens, HT-29, 72 h",9.71 ± 0.74 nM
same,IC50,NCI-H460,11.6 ± 1.11 nM
same,IC50,BxPC-3,7.17 ± 0.52 nM
same,melting point,,251 to 253 °C
same,IC50,HCC-LM3,6.55 ± 1.39 nM
"CC(C)c1c(/C=c2\[nH]c(=O)/c(=C/c3cccc4ccccc34)[nH]c2=O)ncn1CCCN1CCOCC1 [PLN-2-54, (3Z,6Z)-3-(1-Naphthalenyl)methylene-6-((5-isopropyl-1-(3-morpholinyl)propylimidazol-4-yl)methylene)piperazine-2,5-dione]",IC50,"HT-29; Homo sapiens, HT-29, 72 h",6.55 ± 0.33 nM
same,IC50,NCI-H460,8.28 ± 0.91 nM
same,IC50,BxPC-3,5.74 ± 2.19 nM
same,melting point,,248 to 250 °C
same,IC50,HCC-LM3,3.48 ± 2.6 nM
"CC(C)c1c(/C=c2\[nH]c(=O)/c(=C/c3cccc(F)c3)[nH]c2=O)ncn1CCCN1CCO[C@H](C)C1 [PLN-2-56, (3Z,6Z)-3-(3-Fluorophenyl)methylene-6-(5-isopropyl-1-(3-((R)-2-methylmorpholinyl)propylimidazol-4-yl)methylene)piperazine-2,5-dione]",IC50,"HT-29; Homo sapiens, HT-29, 72 h",2.62 ± 0.91 nM
same,IC50,NCI-H460,5.59 ± 1.4 nM
same,IC50,BxPC-3,3.24 ± 0.73 nM
same,melting point,,212 to 214 °C
same,IC50,HCC-LM3,4.26 ± 0.25 nM
"CC(C)c1c(/C=c2\[nH]c(=O)/c(=C/c3cccc(F)c3)[nH]c2=O)ncn1CCCN1CCO[C@@H](C)C1 [PLN-2-57, (3Z,6Z)-3-(3-Fluorophenyl)methylene-6-(5-isopropyl-1-(3-((S)-2-methylmorpholinyl)propylimidazol-4-yl)methylene)piperazine-2,5-dione]",IC50,HT-29,5.07 ± 2.12 nM
same,IC50,NCI-H460,16.6 ± 4.94 nM
same,IC50,BxPC-3,8.56 ± 0.01 nM
same,melting point,,211 to 213 °C
same,IC50,HCC-LM3,13.9 ± 2.5 nM
"C=CC(=O)N1CCN(CCCn2cnc(/C=c3\[nH]c(=O)/c(=C/c4cccc(F)c4)[nH]c3=O)c2C(C)C)CC1 [PLN-2-61, (3Z,6Z)-3-(3-Fluorophenyl)methylene-6-(5-isopropyl-1-(3-(4-(acryloyl)piperazinyl)propylimidazol-4-yl)methylene)piperazine-2,5-dione]",IC50,"HT-29; Homo sapiens, HT-29, 72 h",14.1 ± 0.22 nM
same,IC50,NCI-H460,19.6 ± 2.15 nM
same,IC50,BxPC-3,8 ± 1.15 nM
same,melting point,,182 to 184 °C
same,IC50,HCC-LM3,31.2 ± 6.92 nM
"Cc1cccc(/C=c2\[nH]c(=O)/c(=C/c3ncn(CCCN4CCOCC4)c3C(C)C)[nH]c2=O)c1 [PLN-2-51, (3Z,6Z)-3-(3-Methylphenyl)methylene-6-((5-isopropyl-1-(3-morpholinyl)propylimidazol-4-yl)methylene)piperazine-2,5-dione]",IC50,"HT-29; Homo sapiens, HT-29, 72 h",9.03 ± 0.29 nM
same,IC50,NCI-H460,21.7 ± 3.04 nM
same,IC50,BxPC-3,13.9 ± 3.21 nM
same,melting point,,178 to 180 °C
same,IC50,HCC-LM3,7.49 ± 0.12 nM
"COc1cccc(/C=c2\[nH]c(=O)/c(=C/c3ncn(CCCN4CCOCC4)c3C(C)C)[nH]c2=O)c1 [PLN-2-52, (3Z,6Z)-3-(3-Methoxyphenyl)methylene-6-((5-isopropyl-1-(3-morpholinyl)propylimidazol-4-yl)methylene)piperazine-2,5-dione]",IC50,"HT-29; Homo sapiens, HT-29, 72 h",8.49 ± 0.54 nM
same,IC50,NCI-H460,16.5 ± 3.48 nM
same,IC50,BxPC-3,13.9 ± 0.89 nM
same,melting point,,184 to 186 °C
same,IC50,HCC-LM3,7.54 ± 0.68 nM
